“Also recorded” adds a separate entry of the source.
Experiments:
Type in all cases: physicochemical
[1] = Dynamic vapour sorption (DVS) with post DVS XRPD; conditions: for DVS water uptake: between 20 and 70% RH
Procedure: For dynamic vapour sorption (DVS), approximately 10 mg of sample was placed into a wire mesh vapour sorption balance pan and loaded into a DVS-1 dynamic vapour sorption balance by Surface Measurement Systems. The sample was subjected to a ramping profile from 20-90% relative humidity (RH) at 10% increments, maintaining the sample at each step until a stable weight had been achieved (99.5% step completion). After completion of the sorption cycle, the sample was dried using the same procedure, but all the way down to 0% RH and finally taken back to the starting point of 20% RH. The weight change during the sorption/desorption cycles were plotted, allowing for the hygroscopic nature of the sample to be determined.

[2] = Aqueous solubility: slurries in deionised water, HPLC; conditions: slurry in deionised water shaken ca. 24 hours; for aqueous solubility: assessment in words
Procedure: Slurries of all each polymorphic form were created in deionised water and shaken for ca. 24 hours. The resulting solid was then analysed by HPLC to determine the concentration of material dissolved.

[3] = Stability at 40° C./75% RH for 1 week and 2 weeks (XRPD and HPLC); conditions: open container
Procedure: Samples of each form were exposed to an environment of 40° C./75% RH for 1 week and 2 week periods to determine stability. Resulting solids were analysed by XRPD and HPLC to establish if any changes had occurred.

[4] = XRPD after heating or drying (solid form conversion)
Procedure: X-ray powder diffraction (XRPD) analysis was carried out on a Siemens D5000, scanning the samples between 3 and 30 or 50° 2-theta. For samples <100 mg, ca. 5-10 mg of sample was gently compressed onto a glass slide which fitted into the sample holder. For samples >100 mg, ca. 100 mg of sample was gently compressed into a plastic sample holder, so that the sample surface was smooth and just above the level of the sample holder. Measurements were made as follows: In order to determine the relationship between Forms A and B, a sample of Form B was heated to 120° C. and then XRPD analysis was carried out. […] To determine whether Form C remains the same after losing the solvent present, a sample of Form C was heated to 120° C. (i.e., just past the temperature at which the solvent is removed) and then XRPD analysis was carried out. […] In order to determine whether Form E remains the same after losing the solvent present, a sample of Form E was heated to 120° C. (i.e., just past the temperature at which the solvent is lost) and then XRPD analysis was carried out. […] In order to determine whether Form F remains the same after losing the solvent present, a sample of Form F was heated to 120° C. (i.e., just past the temperature at which the solvent is lost) and then XRPD analysis was carried out. […] To examine whether Form H changes to Form A after heating to 115° C. (point after the solvent loss), the Form H material was heated to 115° C. and XRPD analysis and DSC analysis were then carried out. […] The DSC analysis (FIG. 49) indicated overlapping endotherms between ca. 115-135° C., followed by an exotherm at peak 143.9° C., likely indicating a polymorphic transition. A final endotherm was present at onset 202.7° C. (peak 206.6° C.) corresponding with the Form A melt.

[5] = ambient under vacuum 7 days, then 2 days at 40° C.

C=CC(=O)Nc1cccc(Nc2nc(Nc3ccc(N4CCN(C(C)=O)CC4)cc3OC)ncc2C(F)(F)F)c1 [Form B, N-(3-(2-(4-(4-acetylpiperazin-1-yl)-2-methoxyphenylamino)-5-(trifluoromethyl)pyrimidin-4-ylamino)phenyl)acrylamide]
Post DVS XRPD (solid form) [1]: remained Form B | hygroscopicity (DVS) [1]: non-hygroscopic | DVS water uptake [1]: 0.74% | detection by HPLC analysis for the aqueous solubility [2]: could not be detected | aqueous solubility [2]: poor | HPLC purity after storage ([3]; 1 week): ca. 96.8% | XRPD analysis after storage ([3]; 1 week): predominantly amorphous | HPLC purity after storage ([3]; 2 week): ca. 95.9% | XRPD analysis after storage ([3]; 2 week): predominantly amorphous | XRPD after heating ([4]; heated to 120° C.): mixture of Form B and Form A | XRPD after heating ([4]; heated to 160° C.): converted predominantly to Form A

C=CC(=O)Nc1cccc(Nc2nc(Nc3ccc(N4CCN(C(C)=O)CC4)cc3OC)ncc2C(F)(F)F)c1 [Form C, N-(3-(2-(4-(4-acetylpiperazin-1-yl)-2-methoxyphenylamino)-5-(trifluoromethyl)pyrimidin-4-ylamino)phenyl)acrylamide]
DVS analysis observation [1]: contain solvent, which is lost as the relative humidity is increased | Post DVS XRPD (solid form) [1]: converted to Form A | detection by HPLC analysis for the aqueous solubility [2]: could not be detected | aqueous solubility [2]: poor | HPLC purity after storage ([3]; 1 week): ca. 97.1% | XRPD analysis after storage ([3]; 1 week): converted to Form A with some loss in crystallinity | HPLC purity after storage ([3]; 2 week): ca. 96.8% | XRPD analysis after storage ([3]; 2 week): poorly crystalline with the peaks present corresponding with Form A | XRPD after drying [4, 5]: some loss in crystallinity and converted to Form A | XRPD after heating ([4]; heated to 120° C.): converted to Form A

C=CC(=O)Nc1cccc(Nc2nc(Nc3ccc(N4CCN(C(C)=O)CC4)cc3OC)ncc2C(F)(F)F)c1 [Form D, N-(3-(2-(4-(4-acetylpiperazin-1-yl)-2-methoxyphenylamino)-5-(trifluoromethyl)pyrimidin-4-ylamino)phenyl)acrylamide]
DVS analysis observation [1]: contain solvent which is lost as the relative humidity is increased | Post DVS XRPD (solid form) [1]: converted completely to Form B | detection by HPLC analysis for the aqueous solubility [2]: could not be detected | aqueous solubility [2]: extremely poor | HPLC purity after storage ([3]; 1 week): ca. 96.5% | XRPD analysis after storage ([3]; 1 week): converted completely to Form B with some loss in crystallinity | HPLC purity after storage ([3]; 2 week): ca. 95.5% | XRPD analysis after storage ([3]; 2 week): poorly crystalline with the peaks present corresponding with Form B

C=CC(=O)Nc1cccc(Nc2nc(Nc3ccc(N4CCN(C(C)=O)CC4)cc3OC)ncc2C(F)(F)F)c1 [Form E, N-(3-(2-(4-(4-acetylpiperazin-1-yl)-2-methoxyphenylamino)-5-(trifluoromethyl)pyrimidin-4-ylamino)phenyl)acrylamide]
Post DVS XRPD (solid form) [1]: converted to Form A | DVS water uptake [1]: 0.25% | detection by HPLC analysis for the aqueous solubility [2]: could not be detected | aqueous solubility [2]: extremely poor | HPLC purity after storage ([3]; 1 week): ca. 97.7% | XRPD analysis after storage ([3]; 1 week): predominantly amorphous with visible peaks present corresponding with Form A | HPLC purity after storage ([3]; 2 week): ca. 97.3% | XRPD analysis after storage ([3]; 2 week): predominantly amorphous with visible peaks present corresponding with Form A | XRPD after drying [4, 5]: lost some crystallinity and converted to Form A | XRPD after heating ([4]; heated to 120° C.): converted to Form A

C=CC(=O)Nc1cccc(Nc2nc(Nc3ccc(N4CCN(C(C)=O)CC4)cc3OC)ncc2C(F)(F)F)c1 [Form F, N-(3-(2-(4-(4-acetylpiperazin-1-yl)-2-methoxyphenylamino)-5-(trifluoromethyl)pyrimidin-4-ylamino)phenyl)acrylamide]
DVS analysis observation [1]: contain solvent, which is lost as the relative humidity is increased | Post DVS XRPD (solid form) [1]: converted predominantly to Form A (traces of Form F remaining) | detection by HPLC analysis for the aqueous solubility [2]: could not be detected; also recorded: below the limit of quantification | aqueous solubility [2]: poor | HPLC purity after storage ([3]; 1 week): ca. 96.8% | XRPD analysis after storage ([3]; 1 week): converted to Form A, with some loss in crystallinity | HPLC purity after storage ([3]; 2 week): ca. 96.3% | XRPD analysis after storage ([3]; 2 week): partially crystalline with peaks present corresponding with Form A | XRPD after drying [4, 5]: lost some crystallinity and converted predominantly to Form A | XRPD after heating ([4]; heated to 120° C.): converted predominantly to Form A

C=CC(=O)Nc1cccc(Nc2nc(Nc3ccc(N4CCN(C(C)=O)CC4)cc3OC)ncc2C(F)(F)F)c1 [Form G, N-(3-(2-(4-(4-acetylpiperazin-1-yl)-2-methoxyphenylamino)-5-(trifluoromethyl)pyrimidin-4-ylamino)phenyl)acrylamide]
DVS analysis observation [1]: contain significant amounts of solvent that are lost as the relative humidity is increased | Post DVS XRPD (solid form) [1]: converted to Form A | aqueous solubility [2]: poor | HPLC purity after storage ([3]; 1 week): ca. 96.8% | XRPD analysis after storage ([3]; 1 week): converted predominantly to Form A, with some loss in crystallinity | HPLC purity after storage ([3]; 2 week): ca. 96.2% | XRPD analysis after storage ([3]; 2 week): converted predominantly to Form A, with some loss in crystallinity | XRPD after drying ([4]; 80° C. for 4 days): converted to Form A | XRPD after drying [4, 5]: converted to Form A

From patent US10946016B2, “Solid forms of an epidermal growth factor receptor kinase inhibitor” (Celgene CAR LLC, priority 2012, dated 2021)
